The results in this text go back to patent US20260048155A1, “BIOCOMPATIBLE PARAHYDROGEN HYPERPOLARIZED SOLUTIONS BY PRECIPITATION AND RE-DISSOLUTION” (North Carolina State University, priority 2022, published 2026).

Each structure is given as a SMILES string. A value given as a limit tells only on which side of the number the result lay.

This series is described as follows: Titration study of sodium pyruvate solubility / precipitation from methanol by added solvent. In kind it is physicochemical. The procedure:
Precipitating and filtering of pyruvate from solutions using thermally polarized natural-abundance sodium pyruvate: Considering the finding of low pyruvate solubility herein, ethanol was an obvious first choice as the precipitating solvent. […] Other candidates (acetone, 1-propanol, and ethyl acetate) were tested next. All three solvents mixed with methanol and dissolved 6 mM of SABRE catalyst well. […] For each of the three solvents (FIG. 11) eight 500-μL batches of methanol containing different concentrations of pyruvate were prepared (cpyr∈[80, 60, 40, 30, 20, 8, 4, 2] mM). Then, 9.5 mL of the respective precipitating solvent were added to each sample. In all 80 mM samples, prominent and almost instantaneous precipitation was observed as the solutions lost transparency and became milky. For 1-propanol, acetone, and ethyl acetate, precipitation was visible for all mixtures with 40 mM, 20 mM, and 4 mM or more initial concentration of pyruvate, respectively. Additionally, as ethyl acetate and water are immiscible, a later purification of this solvent was expected to be advantageous (see below). Based on these observations, the rest of the study was continued with acetone and ethyl acetate.

Turning to `CC(=O)C(=O)[O-].[Na+]` [sodium pyruvate], the “precipitation on ethanol addition” value (9-fold volume of ethanol added to 80 mM in methanol) was “no precipitation was detected”. For the same molecule, the “initial pyruvate concentration in methanol at which precipitation was visible” value is at least 40 mM (500 μL methanol + 9.5 mL 1-propanol), at least 20 mM (500 μL methanol + 9.5 mL acetone) and at least 4 mM (500 μL methanol + 9.5 mL ethyl acetate).
